From US20240226342A1, “REACTIVE OXYGEN SPECIES IMAGING AGENTS” (Washington University, priority 2022, published 2024)

Legend:
[1] = Metabolite analysis after incubation in human serum or plasma (QC radio-HPLC); format: in vitro ADME; conditions: 37° C., upto 1 h
From the text: Oxidative imbalance and functional impairment of mitochondria may mediate pathogenesis of neurodegenerative diseases and mitochondria are among the prominent intracellular site for ROS generation. Thus, a 2nd generation redox-sensitive neuroROS tracer was designed (also identified as either as SLN 128 or 12 (noncarrier added) or ^18F-13 (PET tracer); see e.g., FIG. 2) for the detection of total ROS within cells undergoing pro-oxidative stage. While the unlabeled/noncarrier counterpart of the probe 12 was synthesized and characterized through standard analytical methods (Proton NMR, proton-decoupled 13C-NMR, HRMS, Elemental analysis), the carrier added ^18F-13 (Lab ID:18F-SLN128) was synthesized through a reaction between the tosylated precursor 11 and KF{18F}-/Kryptofix 222 and followed by deprotection of methoxymethyl ether 11 in situ with TFA as shown (see e.g., FIG. 2), purified on semipreparatory C-18 column, the desired fraction with a Rt=12 min was collected, concentrated, reconstituted in 5% ethanol/95%sterile saline and analyzed for purity on QC radio-HPLC (radiochemical yield: 15-20%; radiochemical purity >99%; specific activity:1400-1700 Ci/mmole) and identified by spiking with the noncarrier added/unlabeled counterpart. […] For analysis of metabolites, ^18F-SLN-128 was incubated with either human serum or plasma at 37° C. as a function of time and analyzed on QC Radio-HPLC.

[2] = test system: LPS induced systemic inflammation of mouse brain; test: Dynamic PET/CT imaging in LPS-treated mice; format: in vivo; conditions: for brain uptake in LPS-treated mice relative to saline-treated mice: 24 h post LPS, frames 45-60 min
Experimental: FIG. 9A-FIG. 9D is an exemplary embodiment showing preclinical PET/CT imaging in accordance with the present disclosure. C57BI6 mice (n=4) were injected with either LPS or saline intraperitoneally. 24 h post treatments, 18F-SLN-128 (100 μCi) was injected via tail-vein into mice. Dynamic PET images were acquired from 0 min to 60 min post tail-vein injection of the radiotracer. PET/CT images as shown are a summation frames from 45-60 min. FIG. 9A is an image showing saline treated mice (control). FIG. 9B is an image showing LPS treated mice (5 μg/g, 24 h post treatment); FIG. 9C is a bar graph showing quantified uptake: % ID/cm3. FIG. 9D is a bar graph showing post imaging biodistribution: Brain Uptake (% ID/g). mean±SD, where **p<0.01 and […] is determined by an unpaired student ttest) in brains of BI6 mice (n=4) 24 h post either LPS- or saline treatments.
Systemic administration of LPS induces oxidative stress and resulting a release of inflammatory cytokines, sustained microglial activation, and neuronal cell loss in brain areas, such as the hippocampus, cerebral cortex, substantia nigra, ventral tegmental area, and thalamus, alters the levels of neurotransmitters in adult animals, and cerebellum. Thus LPS-induced inflammation provides a useful rodent model for preclinical imaging of ^18F-SLN-128. […] Finally, the brain uptake (see e.g., FIG. 9C) derived from PET imaging also correlated with 60 min post imaging quantified uptake (see e.g., FIG. 9D) indicating potential of the radiotracer for imaging endotoxin mediated brain inflammation in vivo. Mitochondrial dysfunction is a major event in the pathogenesis of Huntington disease (HD). It has also been reported that systemic 3-NP administration leads to oxidized proteins in the striatum, as well as a massive loss of striatal neurons. To evaluate potential of ^18F-SLN-128 PET imaging for 3NP-induced ROS-mediated neurodegeneration in mice, PET/CT imaging was performed.

[3] = test system: 3NP-induced ROS-mediated neurodegeneration in mice; test: PET/CT imaging after stereotaxic injection of 3-NP into striatum; format: in vivo
Experimental: FIG. 10A-FIG. 10D is an exemplary embodiment showing preclinical PET/CT imaging in accordance with the present disclosure. C57BI6 mice (n=4) were injected with either 3-Nitropropionic acid (3-NP) or saline into striatum. 72 h following treatments, 18F-SLN-128 was injected via tail-vein into mice. FIG. 10A includes PET/CT images shown as a summation frames from 45-60 min. Dynamic PET images acquired from 0 min to 60 min post tail-vein injection. Left: Control; Right: 3-NP treated (1 mg/kg, 72 h post treatment). FIG. 10B is a bar graph showing uantified uptake (% ID/cm^3) from PET imaging. FIG. 10C includes images of brains extracted from mice, fixed in PFA/sucrose; sectioned (40 μm); stained with Cresyl violet; Arrow indicates injection site. […]
Systemic administration of LPS induces oxidative stress and resulting a release of inflammatory cytokines, sustained microglial activation, and neuronal cell loss in brain areas, such as the hippocampus, cerebral cortex, substantia nigra, ventral tegmental area, and thalamus, alters the levels of neurotransmitters in adult animals, and cerebellum. […] Finally, the brain uptake (see e.g., FIG. 9C) derived from PET imaging also correlated with 60 min post imaging quantified uptake (see e.g., FIG. 9D) indicating potential of the radiotracer for imaging endotoxin mediated brain inflammation in vivo. […]

[4] = Dynamic PET/MR brain imaging of normal rhesus monkey; format: in vivo
Experimental: FIG. 12A-FIG. 12B is an exemplary embodiment showing dynamic MR/PET brain imaging of normal rhesus monkey (10 Kg) following intravenous injection of 18F-SLN-128 (5.8 mCi) over 2 h in accordance with the present disclosure. FIG. 12A includes images showing summation of PET data over 10 min and co-registered with T2-weighted MR image of the monkey for anatomical reference. FIG. 12B is a line graph showing SUVs as a time-activity curve for the tracer influx and clearance from important regions of the brain.
Of note, these NHP brain SUV values are 2.5-fold higher than reported for ^18F-ROStrace thus likely to translate into higher contrast brain images compared with ^18F-ROStrace (SUV=1.35). […] Tissue time-activity curves (TACs) also show fast initial uptake with maximum projection of activity at 7-10 min followed by clearance of ^18F-SLN-128 at later time-points from amygdala, caudate, cerebellum, cortex (frontal, insular, occipital and temporal), cerebellum, hippocampus, putamen, thalamus, and white matter of rhesus monkey brain.

COc1ccc2c(c1)N(C)C(c1ccc(O)c(OCC[18F])c1)c1cccn1-2 (stereo not drawn) [18F-SLN-128]
metabolic stability in human serum [1]: remains non-metabolized
brain uptake in LPS-treated mice relative to saline-treated mice [2]: 2.5 fold
brain uptake in LPS-treated mice relative to saline-treated mice ([2]; listed as 18F-SLN128): 2 fold
retention in brains of LPS treated mice ([2]; compared with saline-treated counterparts): stable retention in brains of LPS treated mice
correlation of brain uptake with immunohistochemistry ([3]; 3-NP treated mice): maps with neurodegeneration and microglial activation in the striatum regions
retention in brains of 3-NP treated mice compared with saline treated ([3]; 72 h post 3-NP into striatum): 2 fold
clearance from brain regions ([4]; later time points): excreted from critical regions at later-time points
nonspecific retention in normal monkey brain ([4]; over 2 h): Insignificant nonspecific retention
time of maximum SUV ([4]; rhesus monkey): 7 to 10 min
NHP brain SUV relative to 18F-ROStrace ([4]; rhesus monkey, in vivo): 2.5 fold
maximum Standard Uptake Value (SUV) in brain ([4]; rhesus monkey, intravenous injection): 3.5
metabolites in venous blood (radio-HPLC, γ-counter) ([4]; samples at an interval of 3 min over 2 hours): did not show any metabolite
